Results as given in article PMC8409943, “Study on mechanism of low bioavailability of black tea theaflavins by using Caco-2 cell monolayer” (Drug Delivery, 2021).
Each block holds one compound with its values, some of them ahead of it.

Tests used:
Caco-2 cells = assay: Intracellular accumulation of theaflavin monomers; conditions: 200 μM theaflavins, 2 h incubation, 37 °C
Protocol: Caco-2 cells were seeded at a density of 8 × 10^4 cells per well in 6-well plates (Ni et al., [2020]). After differentiation over a period of 21 days, cells were incubated with 2.0 mL of 200 μM theaflavins at 37 °C. After 2 h incubation, phosphate buffer was added to wash cells in the plate. Then, cell lysates were prepared with RIPA lysis buffer containing 1 mM PMSF as a protease inhibitor and centrifugated at 12,000 rpm for 30 min. Total protein contents were quantified using a BCA estimation kit according to the manufacturer’s instructions (Beyotime). Theaflavins were quantified by HPLC analysis and the intracellular accumulation was expressed as µg theaflavin/mg protein.
Theaflavins were characterized by high performance liquid chromatography (HPLC, Agilent 1100VL, Agilent Technologies Inc., CA, USA). Briefly, samples were extracted with 70% methanol, centrifuged at 685 × g for 10 min, and filtered through a 0.45 μm membrane (Nylon 66). […] Samples were eluted with a gradient of solvent A (100 mL water with 9 mL acetonitrile and 2 mL acetic acid) and B (100 mL acetonitrile with 17.8 mL water and 2 mL acetic acid) as follows: 0–5 min, 95% A; 5–10 min, 90% A; 10–20 min, 70% A; 20–25 min, 65% A; 25–30 min, 70% A; 30–35 min, 100% A. Theaflavins were detected using an ultraviolet detector at a wavelength of 278 nm.

BCRP = assay: Quantitative real-time PCR, mRNA level of BCRP; assay type: cell-based, Human; conditions: Caco-2 cells, 200 μM, 2 h, vs control
Protocol: (§1) Cell culture and treatment were performed as described above in 2.6. Total RNA was extracted from Caco-2 cells by the cell RNA extraction kit, and then reverse-transcribed by the cDNA synthesis kit. Gene amplification and quantitative detection were performed as previously described (Ai et al., [2019]). Target mRNA levels were normalized to β-actin mRNA levels. Data were calculated by the 2^−ΔΔCT method.

[1] = set-up: method as in Henning et al., 2006; conditions: mice treated with decaffeinated black tea (50 mg/g diet) for two weeks; ref Henning et al., 2006; cited from earlier work
[2] = 2 h, 200 μM
Protocol: Standard stock solutions of each theaflavin were diluted with HBSS and DMEM respectively, obtaining final test solutions of 200 μM. The recovery rate of theaflavins in HBSS and in DMEM, in the absence of cells, was analyzed by HPLC after incubation at 37 °C for 0.5, 1, 2, 3, 4, 8, 12, and 24 hours, respectively. The recovery rate was used to measure the stability and calculated as follows: (2) Recovery rate=Ct/C0× 100% where Ct is the final concentration at different incubation time (μM); C0, the initial concentration (μM).
Theaflavins were characterized by high performance liquid chromatography (HPLC, Agilent 1100VL, Agilent Technologies Inc., CA, USA). Briefly, samples were extracted with 70% methanol, centrifuged at 685 × g for 10 min, and filtered through a 0.45 μm membrane (Nylon 66). The separation was performed by an ODS reversed-phase column (4.6 mm i.d.×250 mm, SB-C18, Agilent Technologies Inc., CA, USA) at a flow rate of 0.7 mL/min. Chromatographic conditions were slightly modified according to China National Standard (GB/T 30483-2013, GAQSIQ, P. R. China, 2013). Samples were eluted with a gradient of solvent A (100 mL water with 9 mL acetonitrile and 2 mL acetic acid) and B (100 mL acetonitrile with 17.8 mL water and 2 mL acetic acid) as follows: 0–5 min, 95% A; 5–10 min, 90% A; 10–20 min, 70% A; 20–25 min, 65% A; 25–30 min, 70% A; 30–35 min, 100% A. Theaflavins were detected using an ultraviolet detector at a wavelength of 278 nm.

P-gp [3] = assay: Western blot, protein level of P-gp; assay type: cell-based, Human; conditions: Caco-2 cells, 200 μM, 2 h, normalized to β-actin, vs control
Protocol: Cell lysates were prepared with RIPA lysis buffer. […] Cell protein (50 μg) was loaded onto SDS polyacrylamide gel (5% stacking gel; 8% separating gel) and separated by electrophoresis for 1.5 h at 20 mA. Next, the separated proteins were transferred onto the PVDF membrane in ice bath for 1.5 h at 120 mA, followed by blocking the membrane with 5% nonfat milk in Tris-buffered saline containing 0.1% Tween-20 (TBST) for 1 h at room temperature. After blocking, the blots were incubated overnight at 4 °C with the primary antibody of P-gp, MRP1, MRP2, MRP3, BCRP (1:200) or β-actin (1:40,000), followed by washing with TBST and incubation for 1 h at room temperature with HRP-conjugated goat anti-rabbit (1:3,000). Immunoreactive proteins were visualized by the ECL detection system, band intensity was quantified by Image Lab (Bio-Rad, CA, USA), and the protein contents were normalized to β-actin.

MRP3 = assay: Quantitative real-time PCR, mRNA level of MRP3; assay type: cell-based, Human; conditions: Caco-2 cells, 200 μM, 2 h, vs control
Protocol: as §1

MRP1 = assay: Quantitative real-time PCR, mRNA level of MRP1; assay type: cell-based, Human; conditions: Caco-2 cells, 200 μM, 2 h, vs control
Protocol: as §1

P-gp [4] = assay: Quantitative real-time PCR, mRNA level of P-gp; assay type: cell-based, Human; conditions: Caco-2 cells, 200 μM, 2 h, vs control
Protocol: as §1

Contents of theaflavins absorbed in Caco-2 cells (Caco-2 cells): -
SMILES: O=C(O[C@@H]1Cc2c(O)cc(O)cc2O[C@@H]1c1cc(O)c(O)c2c(=O)c(O)cc([C@H]3Oc4cc(O)cc(O)c4C[C@H]3O)cc12)c1cc(O)c(O)c(O)c1 [TF3’G, theaflavin-3’-gallate]

degraded due to the structural instability [2]: 11.6%
SMILES: O=C(O[C@@H]1Cc2c(O)cc(O)cc2O[C@@H]1c1cc(O)c(=O)c2c(O)c(O)cc([C@H]3Oc4cc(O)cc(O)c4C[C@H]3OC(=O)c3cc(O)c(O)c(O)c3)c2c1)c1cc(O)c(O)c(O)c1 [TFDG, theaflavin-3, 3’-digallate]
increase of mRNA level of BCRP (BCRP): 35.49%
amount in tissue samples [1]: less than 1 nmol/g tissue

SMILES: O=C(O[C@@H]1Cc2c(O)cc(O)cc2O[C@@H]1c1cc(O)c(=O)c2c(O)c(O)cc([C@H]3Oc4cc(O)cc(O)c4C[C@H]3O)c2c1)c1cc(O)c(O)c(O)c1 [TF3G, theaflavin-3-gallate]
increase of protein level of P-gp (P-gp [3]): 23.94%
increase of mRNA level of MRP3 (MRP3): 34.01%
increase of mRNA level of MRP1 (MRP1): 154.97%
increase of mRNA level of P-gp (P-gp [4]): 44.45%
